Measurements: patent US12435072B2, “Compounds” (Vicore Pharma AB, priority 2019, dated 2025)
Read-outs that look alike come from different tables or passages of the source.

Legend:
Format in all cases: in vitro ADME
CYP3A4&5 = test: CYP inhibition in human liver microsomes, CYP3A4&5 (testosterone); conditions: probe testosterone, substrate testosterone, read-out: CYP3A4&5 testosterone Inh %
Protocol: (§1) The following substrates were used: CYP1A phenacetin, CYP2B6 bupropion, CYP2C8 paclitaxel and amodiaquine, CYP2C9 diclofenac, CYP2C19 omeprazole, CYP2D6 dextromethorphan, CYP3A midazolam and testosterone. At the end of the incubation, the formation of metabolite was monitored by HPLC-MS/MS as the peak area response.

[1] = Metabolic stability in pooled human liver microsomes; conditions: pooled human liver microsomes 0.5 mg/ml, 1 μM test compound, 37° C.
Protocol: Pooled human liver microsomes in PBS at a concentration of 0.5 mg/ml was incubated with or without 1 mM NADPH for 70 min at 37° C. Test compound was added after 10 minutes to a final concentration of 1 μM. Samples were withdrawn at 0, 5, 15 and 60 minutes and added to test tubes containing acetonitrile, to stop the reaction, and with terfenadine, used as internal standard. After centrifugation at 10 000×g for 5 minutes the supernatant was diluted 1:1 with 1% formic acid. Samples were separated on a reverse phase column and detected by triple quadrupole MSMS (Agilant model 6540). The concentration of the parent compound at the different time points was measured with an external standard curve using terfenadine as internal standard and the initial metabolic rate in the presence or absence of NADPH calculated.

CYP2B6 = target: T1, CYP2B6 (Homo sapiens, UniProt P20813); test: CYP inhibition in human liver microsomes, CYP2B6; conditions: probe bupropion, substrate bupropion, read-out: CYP2B6 Inh %
T1 construct: incubated with human liver microsomes; tissue Eurofins ITEMG232; host or cells: human liver microsomes
T1 sequence (P20813 1-491): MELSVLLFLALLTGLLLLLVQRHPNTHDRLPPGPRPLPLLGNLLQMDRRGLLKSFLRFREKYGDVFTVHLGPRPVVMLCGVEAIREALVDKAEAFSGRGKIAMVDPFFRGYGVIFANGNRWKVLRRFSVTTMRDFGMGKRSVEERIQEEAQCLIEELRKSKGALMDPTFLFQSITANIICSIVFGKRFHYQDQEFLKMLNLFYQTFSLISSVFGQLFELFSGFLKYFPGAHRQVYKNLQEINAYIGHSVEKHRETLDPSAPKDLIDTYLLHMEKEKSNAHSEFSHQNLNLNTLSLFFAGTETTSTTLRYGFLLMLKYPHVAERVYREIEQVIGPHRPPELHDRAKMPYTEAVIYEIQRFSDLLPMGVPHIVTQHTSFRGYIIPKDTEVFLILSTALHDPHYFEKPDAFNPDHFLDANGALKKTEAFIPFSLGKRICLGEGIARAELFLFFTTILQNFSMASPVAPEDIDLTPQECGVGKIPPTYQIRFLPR
Protocol: as §1

[2] = with 1 mM NADPH, read-out: T1/2, + NaDPH
[3] = without NADPH, read-out: T1/2, no NaDPH

Compound	inhibition at 10 µM (CYP3A4&5) [%]	half-life at 1 μM [1, 2] [h]	half-life at 1 μM [1, 3] [h]	inhibition at 10 µM (CYP2B6) [%]
Cc1nccn1Cc1ccc(-c2cc(CC(C)C)sc2S(=O)(=O)NC(=O)NCc2nccn2C)cc1F [Example 15, 1-(3-{3-Fluoro-4-[(2-methyl-1H-imidazol-1-yl)methyl]phenyl}-5-isobutyl-2-thienylsulfonyl)-3-[(1-methyl-1H-imidazol-2-yl)methyl]urea]	12	> 1	> 1	63
CCCNC(=O)NS(=O)(=O)c1sc(CC(C)C)cc1-c1ccc(Cn2ccnc2CC)c(F)c1.O=C(O)C(F)(F)F [Example 33, 1-[(3-{4-[(2-ethyl-1H-imidazol-1-yl)methyl]-3-fluorophenyl}-5-(2-methylpropyl)thiophen-2-yl)sulfonyl]-3-propylurea trifluoroacetic acid]	11	> 1	> 1	37
Cc1nccn1Cc1ccc(-c2cc(CC(C)C)sc2S(=O)(=O)NC(=O)NCCC(F)(F)F)cc1F [Example 14, 3-(3-{3-Fluoro-4-[(2-methyl-1H-imidazol-1-yl)methyl]phenyl}-5-isobutyl-2-thienylsulfonyl)-1-(3,3,3-trifluoropropyl)urea]	33	1.5	> 1	43
Cc1nccn1Cc1ccc(-c2cc(CC(C)C)sc2S(=O)(=O)NC(=O)NCc2ccc(F)c(F)c2)cc1F.O=C(O)C(F)(F)F [Example 34, 1-[(3,4-difluorophenyl)methyl]-3-[(3-{3-fluoro-4-[(2-methyl-1H-imidazol-1-yl)methyl]phenyl}-5-(2-methylpropyl)thiophen-2-yl)sulfonyl]urea trifluoroacetic acid]	60	0.1	> 1	57
CCc1nccn1Cc1ccc(-c2cc(CC(C)C)sc2S(=O)(=O)NC(=O)NCc2ccccc2)cc1 [Example 6, 1-Benzyl-3-(3-{p-[(2-ethyl-1H-imidazol-1-yl)methyl]phenyl}-5-isobutyl-2-thienylsulfonyl)-urea]	13.2	0.4	> 1	18.1
Cc1nccn1Cc1ccc(-c2cc(CC(C)C)sc2S(=O)(=O)NC(=O)NCc2ccccn2)cc1 [Example 2, 3-(5-isobutyl-3-{p-[(2-Methyl-1H-imidazol-1-yl)methyl]phenyl}-2-thienylsulfonyl)-1-[(2-pyridyl)methyl]urea]	0.3	> 1	> 1	8.2
Cc1nccn1Cc1ccc(-c2cc(CC(C)C)sc2S(=O)(=O)NC(=O)NC(C)c2ccccn2)cc1F (stereo not drawn) [Example 25, 3-(3-{3-Fluoro-4-[(2-methyl-1H-imidazol-1-yl)methyl]phenyl}-5-isobutyl-2-thienylsulfonyl)-1-[1-(2-pyridyl)ethyl]urea]	15	1	> 1	23
Cc1nccn1Cc1ccc(-c2cc(CC(C)C)sc2S(=O)(=O)NC(=O)NCC(C)C)cc1F.O=C(O)C(F)(F)F [Example 39, 1-[(3-{3-fluoro-4-[(2-methyl-1H-imidazol-1-yl)methyl]phenyl}-5-(2-methylpropyl)thiophen-2-yl)sulfonyl]-3-(2-methylpropyl)urea trifluoroacetic acid]	27	1	> 1	28
CCc1nccn1Cc1ccc(-c2cc(CC(C)C)sc2S(=O)(=O)NC(=O)NCCOC)cc1 [Example 7, 3-(3-{p-[(2-Ethyl-1H-imidazol-1-yl)methyl]phenyl}-5-isobutyl-2-thienylsulfonyl)-1-(2-methoxy-ethyl)urea]	3	> 1	> 1	-0.4
CCc1nccn1Cc1ccc(-c2cc(CC(C)C)sc2S(=O)(=O)NC(=O)NCc2ccc(F)cc2)cc1F.O=C(O)C(F)(F)F [Example 32, 3-[(3-{4-[(2-ethyl-1H-imidazol-1-yl)methyl]-3-fluorophenyl}-5-(2-methylpropyl)thiophen-2-yl)sulfonyl]-1-[(4-fluorophenyl)methyl] urea trifluoroacetic acid]	10	0.117	> 1	25
Cc1nccn1Cc1ccc(-c2cc(CC(C)C)sc2S(=O)(=O)NC(=O)NCc2ccccn2)cc1F [Example 13, 3-(3-{3-Fluoro-4-[(2-methyl-1H-imidazol-1-yl)methyl]phenyl}-5-isobutyl-2-thienylsulfonyl)-1-[(2-pyridyl)methyl]urea]	9	> 1	> 1	3
CC(C)Cc1cc(-c2ccc(Cn3ccnc3C(C)C)c(F)c2)c(S(=O)(=O)NC(=O)NCCC(F)(F)F)s1.O=C(O)C(F)(F)F [Example 41, 1-{[3-(3-fluoro-4-{[2-(propan-2-yl)-1H-imidazol-1-yl]methyl}phenyl)-5-(2-methylpropyl)thiophen-2-yl]sulfonyl}-3-(3,3,3-trifluoropropyl)urea trifluoroacetic acid]	10	0.717	> 1	30
Cc1nccn1Cc1ccc(-c2cc(CC(C)C)sc2S(=O)(=O)NC(=O)NCc2cccs2)cc1F.O=C(O)C(F)(F)F [Example 35, 1-[(3-{3-fluoro-4-[(2-methyl-1H-imidazol-1-yl)methyl]phenyl}-5-(2-methylpropyl)thiophen-2-yl)sulfonyl]-3-[(thiophen-2-yl)methyl]urea trifluoroacetic acid]	25	0.75	> 1	46
Cc1nccn1Cc1ccc(-c2cc(CC(C)C)sc2S(=O)(=O)NC(=O)NCc2ccccc2)cc1 [Example 1, 1-benzyl-3-[[5-isobutyl-3-[4-[(2-methylimidazol-1-yl)methyl]phenyl]-2-thienyl]sulfonyl]urea]	21.4	0.4	> 1	19
Cc1nccn1Cc1ccc(-c2cc(CC(C)C)sc2S(=O)(=O)NC(=O)NCC2CCC(F)(F)CC2)cc1F.O=C(O)C(F)(F)F [Example 40, 1-[(4,4-difluorocyclohexyl)methyl]-3-[(3-{3-fluoro-4-[(2-methyl-1H-imidazol-1-yl)methyl]phenyl}-5-(2-methylpropyl)thiophen-2-yl)sulfonyl]urea trifluoroacetic acid]	63	0.0667	> 1	54
Cc1nccn1Cc1ccc(-c2cc(CC(C)C)sc2S(=O)(=O)NC(=O)NCc2cc(Cl)ccn2)cc1F.O=C(O)C(F)(F)F [Example 38, 1-[(4-chloropyridin-2-yl)methyl]-3-[(3-{3-fluoro-4-[(2-methyl-1H-imidazol-1-yl)methyl]phenyl}-5-(2-methylpropyl)thiophen-2-yl)sulfonyl]urea trifluoroacetic acid]	13	0.45	> 1	25
CCCCNC(=O)NS(=O)(=O)c1sc(CC(C)C)cc1-c1ccc(Cn2ccnc2C)cc1 [Example 4, 1-Butyl-3-(5-isobutyl-3-{p-[(2-methyl-1H-imidazol-1-yl)methyl]phenyl}-2-thienylsulfonyl)-urea]	8.2	0.65	> 1	12.7
Cc1nccn1Cc1ccc(-c2cc(CC(C)C)sc2S(=O)(=O)NC(=O)NCCCC(F)(F)F)cc1 [Example 5, 3-(5-isobutyl-3-{p-[(2-Methyl-1H-imidazol-1-yl)methyl]phenyl}-2-thienylsulfonyl)-1-(4,4,4-trifluorobutyl)-urea]	14.7	0.417	> 1	9.6
